Assay results published in ChEMBL document CHEMBL3885881, “DrugMatrix”.

Organism: Rattus norvegicus
Assay type: toxicity, organism-based, Sprague-Dawley
Details: in vivo, iv, 0 mg/kg, 24 h, vehicle control, dose level Control, time 1 day, vehicle 100 % SALINE
Description: DrugMatrix - Regimen: Single

## CC(=O)[C@]1(O)Cc2c(O)c3c(c(O)c2[C@@H](O[C@H]2C[C@H](N)[C@H](O)[C@H](C)O2)C1)C(=O)c1ccccc1C3=O [IDARUBICIN]
Tissue Blood
  ABSOLUTE BASOPHIL: 280 cells/µL
  ABSOLUTE EOSINOPHIL: 75 cells/µL
  ABSOLUTE LYMPHOCYTE: 9060 cells/µL
  ABSOLUTE MONOCYTE: 260 cells/µL
  BASOPHIL: 2.17%
  EOSINOPHIL: 0.62%
  ERYTHROCYTE COUNT: 6.64 x10E6/uL
  HEMATOCRIT: 42.6%
  HEMOGLOBIN: 13.5 G/DL
  LEUKOCYTE COUNT: 11.87 x10E3/uL
  LYMPHOCYTE: 76.3%
  MEAN CORPUSCULAR HEMOGLOBIN: 20.37 pg
  MEAN CORPUSCULAR HEMOGLOBIN CONCENTRATION: 31.75 G/DL
  MEAN CORPUSCULAR VOLUME: 64.17 fL
  MONOCYTE: 2.1%
  NEUTROPHIL: 16.75%
  PLATELET COUNT: 1144.5 x10E3/uL
Tissue Plasma
  ALANINE AMINOTRANSFERASE: 42.75 u/L
  ALBUMIN: 3.6 G/DL
  ALKALINE PHOSPHATASE: 314.75 u/L
  ASPARTATE AMINOTRANSFERASE: 66.5 u/L
  BLOOD UREA NITROGEN: 14 mg/dL
  CARBON DIOXIDE: 37.5 mmol/L
  CHLORIDE: 108 MEQ/L
  CHOLESTEROL: 74.25 mg/dL
  CREATINE PHOSPHOKINASE: 271 u/L
  CREATININE: 0.65 mg/dL
  GLUCOSE: 171 mg/dL
  LACTATE DEHYDROGENASE: 125.75 u/L
  LIPASE: 27.5 u/L
  PHOSPHORUS: 11.25 mg/dL
  POTASSIUM: 6.72 MEQ/L
  SODIUM: 153.5 MEQ/L
  TOTAL BILIRUBIN: 0.23 mg/dL
  TOTAL PROTEIN: 6.2 G/DL
  URIC ACID: 0.85 mg/dL
